Source: ChEMBL document CHEMBL3637782, “GSK Tres Cantos Follow-up TB Screening Data” (2016)
Converted amounts (≈) assume the structure as drawn.

Key:
[1] = GSK_TB: AVG_CHROM_LOGP; assay type: physicochemical
[2] = system: Mycobacterium tuberculosis H37Rv; assay: GSK_TB: Minimum inhibitory concentration against H37Rv stain of Mycobacterium tuberculosis using MABA method; assay type: functional; conditions: ATCC25618
[3] = GSK_TB: Lipophilicity, log D of the compound at pH 7.4 by ChromlogD analysis; assay type: physicochemical; conditions: buffer
HepG2 = assay: GSK_TB: The cytotoxicity against HepG2 cells expressed as IC50; assay type: functional, cell-based; conditions: Homo sapiens
[4] = system: Mycobacterium tuberculosis H37Rv; assay: GSK_TB: Inhibition of the intracellular growth of Mycobacterium tuberculosis (pXC50); assay type: functional, ATCC25618
[5] = GSK_TB: Kinetic solubility of the compound in phosphate buffered saline at pH 7.4 after 1 hr by CLND method; assay type: physicochemical
[6] = system: Mycobacterium tuberculosis H37Rv; assay: GSK_TB: Growth inhibition of non-replicating Mycobacterium tuberculosis (pXC50); assay type: functional, ATCC25618

SMILES | Lipophilicity [1] | MIC [2] [µM] | Lipophilicity [3] | IC50 (HepG2) [µM] | pXC50 [4] | solubility kinetic at 1 h [5] [µg/mL] | pXC50 [6]
O=C(NCc1ccco1)N1CCN(Cc2ccc3c(c2)CCO3)CC1 | 3.5941 | 2 (≈ 0.683 µg/mL) | 3.47 | > 100 | 5.8 | 88 (≈ 258 µM) | 
COc1ccc2nccc(NC(=O)C3CCN(CCc4ccc(Cl)cc4)CC3)c2n1 |  | 0.2 (≈ 0.085 µg/mL) | 5.49 | > 100 | 6.6 | 4 (≈ 9.41 µM) | 5.1
O=C(NCc1ccoc1)N1CCN(Cc2ccc3c(c2)OCO3)CC1 | 3.5288 | 1.25 (≈ 0.429 µg/mL) | 3.48 | > 100 | 6.3 | 86 (≈ 250 µM) | 
Nc1ccccc1Nc1ccc(Cl)cc1 | 5.9114 | 2 (≈ 0.437 µg/mL) | 5.76 | 79 | 7.8 | 59 (≈ 270 µM) | 4.5
O=C(NCc1ccco1)N1CCN(Cc2cccs2)CC1 | 3.5288 | 2.5 (≈ 0.764 µg/mL) | 3.53 | > 100 | 5.4 | ≥ 105 | 
O=S(=O)(NCc1ccccc1)c1ccc(-c2cc3ccncc3cc2OC2CCNCC2)s1 | 4.4101 | 2.5 (≈ 1.2 µg/mL) | 3.2 | 10 | 5.4 | 33 (≈ 68.8 µM) | 
COc1ccc(-c2nnc3sc(Cc4csc(C)n4)nn23)cc1 | 4.0511 | 2.5 (≈ 0.859 µg/mL) | 3.97 | > 100 | 5.7 | 95 (≈ 277 µM) | 
CNc1nc(SC)nnc1-c1cccc(Cl)c1Cl | 4.9976 | 2.5 (≈ 0.753 µg/mL) | 4.94 | > 100 | 6.1 | ≥ 85 | 
Nc1ccc(C(O)CNCCc2ccccc2)cc1O (stereo unspecified) | 1.7338 | 2.9 (≈ 0.79 µg/mL) | 0.97 | 50 | 4.97 | 53 (≈ 195 µM) | 
O=C(Nc1nc2c(s1)CCCc1cccnc1-2)c1ccccc1C(F)(F)F | 5.2587 | 3.7 (≈ 1.44 µg/mL) | 5.26 | 79 | 6.2 | 9 (≈ 23.1 µM) | 
CN(Cc1ccc(Cl)cc1)C(=O)CCc1nc2ccccc2oc1=O | 6.0093 | 3.9 (≈ 1.39 µg/mL) | 5.86 | > 100 | <4.3 | 127 (≈ 356 µM) | 4.9
Clc1nnc(N2CCCC2)c2ccccc12 | 4.4101 | 4 (≈ 0.935 µg/mL) | 4.41 | > 100 | 5.8 | ≥ 100 | 
Cc1nc(Nc2cnn(Cc3ccccc3F)c2)c2nn(C)c(C)c2n1 | 3.4146 | 4 (≈ 1.41 µg/mL) | 3.41 | > 100 | 6 | 23 (≈ 65.5 µM) | 
O=[N+]([O-])c1cnc(-c2nc3ccccc3[nH]2)s1 | 4.459 | 4.4 (≈ 1.08 µg/mL) | 3.17 | 10 | <4.3 | 16 (≈ 65 µM) | 
FC(F)(F)Oc1ccc(-c2cc3ccncc3cc2OC2CCNCC2)cc1 | 6.8742 | 5 (≈ 1.94 µg/mL) | 3.47 | 16 | 5.5 | 82 (≈ 211 µM) | 
CCCCNCC1COc2ccc(OC)cc2C1=O (stereo unspecified) | 5.6014 | 5 (≈ 1.32 µg/mL) | 2.99 | 12 | 5.3 | 118 (≈ 448 µM) | 

SMILES | Lipophilicity [1] | MIC [2] [µM] | Lipophilicity [3] | IC50 (HepG2) [µM] | pXC50 [4] | solubility kinetic at 1 h [5] [µg/mL] | pXC50 [6]
COc1ccc(Nc2nc(N[C@@H]3CCNC3)nc3cc[nH]c(=O)c23)cc1NC(=O)c1ccccc1 | 3.1698 | 5 (≈ 2.36 µg/mL) | 2.41 | 25 | 5.5 | 106 (≈ 226 µM) | 
c1ccc(-c2ncc(-c3ccc(OCCCn4ccnc4)cc3)s2)cc1 | 6.7437 | 5 (≈ 1.81 µg/mL) | 6.42 | 25 | 5.3 | 3 (≈ 8.3 µM) | 
COc1ccc(Nc2ncccc2N)cc1 | 1.44 | 5.6 (≈ 1.21 µg/mL) | 1.45 | 63 | 6.2 | 18 (≈ 83.6 µM) | 
Fc1ccc(Cc2nnc(-c3ccnc(Nc4ccc(OCCN5CCOCC5)cc4)n3)[nH]2)cc1 | 3.8389 | 5.6 (≈ 2.66 µg/mL) | 3.84 | 40 | 5.8 | 69 (≈ 145 µM) | 
FC(F)(F)c1nnc2ccc(Sc3nnc(-c4ccco4)o3)nn12 | 3.8715 | 5.6 (≈ 1.98 µg/mL) | 3.78 | 32 | 5.4 | 125 (≈ 353 µM) | 4.5
Cc1ccc2oc(SCC(=O)Nc3nccs3)nc2n1 | 3.0066 | 5.6 (≈ 1.72 µg/mL) | 3.01 | 40 | <4.3 | 31 (≈ 101 µM) | 
O=C(NCCO)c1c(O)c2ncc(Cc3ccc(F)cc3C(F)(F)F)cc2[nH]c1=O | 3.9858 | 7.5 (≈ 3.19 µg/mL) | 3.74 | > 100 | 5.7 | 10 (≈ 23.5 µM) | 
COc1ccc(CCNC(=O)C2(n3cnnn3)CCCCC2)cc1 | 3.1698 | 8 (≈ 2.64 µg/mL) | 2.43 | > 100 | 5.7 | ≥ 226 | 
O=C(O)CCc1nc2ccccc2oc1=O | 2.3212 | 8 (≈ 1.75 µg/mL) | 0.04 | > 100 | <4.3 | 63 (≈ 287 µM) | 
O=C(Nc1nc(-c2ccccn2)cs1)N1CCC(Cc2ccc(F)cc2)CC1 | 6.3357 | 10 (≈ 3.96 µg/mL) | 6.09 | 25 | 6.1 | 4 (≈ 10.1 µM) | 
CCCCc1ccc(C(=O)Nc2nnc(S(=O)(=O)CCCC)s2)nc1 | 7.3965 | 10 (≈ 3.83 µg/mL) | 6.01 | 20 | 5.6 | 1.5 (≈ 3.92 µM) | 
CC(C)Oc1ccc(-c2nnc(-c3ccc4c(c3)CCNCC4)s2)cc1Cl | 7.5923 | 10 (≈ 4 µg/mL) | 4.92 | 16 | 5.5 | 5 (≈ 12.5 µM) | 
N#Cc1cc(C(F)(F)F)c2nc(C(=O)NCc3cccs3)c(Cl)n2c1 | 5.4382 | 10 (≈ 3.85 µg/mL) | 5.21 | > 100 | 6.1 | 72 (≈ 187 µM) | 5.2
CCOc1cc2ccccc2cc1C(=O)NC | 4.6549 | 10 (≈ 2.29 µg/mL) | 4.43 | > 100 | 5.3 | 64 (≈ 279 µM) | 
COc1ccc(CN2CCN(C(=O)/C=C/c3csc(C)n3)CC2)cc1 | 4.1653 | 10 (≈ 3.57 µg/mL) | 4.13 | 80 | 5.7 | ≥ 116 | 
Nc1ccc(S(=O)(=O)Nc2ccnn2-c2ccccc2)cc1 [SULFAPHENAZOLE] | 2.8435 | 10 (≈ 3.14 µg/mL) | 1.08 | > 100 | <4.3 | ≥ 167 | 
